Like-named read-outs stand apart in the source and are kept apart here.
What was measured:
[1] = Pharmacokinetics and absolute bioavailability of five compounds after oral and i.v. administration (UHPLC-MS/MS); format: in vivo; settings: rat; for MRT last: read-out: MRT0-t; for half-life: read-out: t1/2 (converted); for AUCΔ0-t (dose-normalized) / AUCΔ0-∞ (dose-normalized) / CΔmax (dose-normalized): dose-normalized value
Experimental: A Thermo Hypersil Gold C18 column (3.0 × 100 mm, i.d.; 3 μm) was used for chromatographic separation. An aqueous 10 mM ammonium acetate solution (A) and acetonitrile (B) were selected as the mobile phase components. The optimal gradient program involved the following steps: 5% B (0–1 min), changing to 85% B (1–3.5 min), 85% B (3.5–4.0 min), changing to 5% B (4.0–4.1 min) and 5% B (4.1–5.0 min). The flow rate was set to 0.4 mL/min, the autosampler was maintained at 4 °C and the injection volume was 5 μL.
UHPLC-MS/MS was conducted by an Applied Biosystems (AB) Sciex Exion LC system (Foster City, CA) connected to a 6500 + triple quad tandem mass spectrometer with an electrospray ionization source. All detection and quantifications were carried out in positive multiple reaction monitoring (MRM) mode. The optimized parameters were programmed as follows: ion source temperature, 500 °C; curtain gas pressure, 30 kPa; ion source gas 1 pressure, 55 kPa; ion source gas 2 pressure, 55 kPa; and ion spray voltage, […]. The chemical structures and ion mass spectra of targeted compounds are shown in Figure 1. The precursor ion and product ion were m/z 517.1 → 174.9 for A5, m/z 547.0 → 204.9 for A6, m/z 753.2 → 205.2 for DSS, m/z 681.3 → 443.3 for TFSA, m/z 236.8 → 103.2 for TMCA and m/z 136.9 → 92.9 for IS. All data were acquired by using AB Sciex Analyst software (version 1.6.3).
After thawing the frozen blood samples at room temperature, a 100 μL aliquot of plasma was spiked with 50 μL of the IS working solution in 2 mL EP tubes, and 750 μL of methanol was added into each of the tubes. Then, these tubes were mixed on a multi-tube Vortexer for 0.5 min before centrifugation at 11,800×g for 10 min. Finally, 200 μL of the obtained supernatant was transferred to a fresh autosampler vial, and then 5 μL of the sample was injected for analysis.
The SD rats were randomly divided into oral and i.v. groups for A5, A6, DSS, TFSA and TMCA administration (n = 6 in each group). The oral doses of A5, A6, DSS, TFSA and TMCA groups were 7.40, 11.60, 16.00, 50.00 and 3.11 mg/kg, respectively, and the corresponding i.v. doses were 0.74, 1.16, 1.60, 5.00 and 0.31 mg/kg, respectively. Blood samples were collected from the suborbital vein into heparinized tubes before and 0, 0.083, 0.17, 0.25, 0.5, 1, 2, 3, 5 and 8 h after administration. The treatment method of blood samples was the same as that mentioned above.
The elementary pharmacokinetic parameters of plasma samples were analyzed by DAS 2.0 pharmacokinetic software. One-way analysis of variance (ANOVA) was used for statistical comparison for pharmacokinetic and interaction studies. A p-value < 0.05 indicated a significant difference. The main parameters considered were as follows: AUC0–∞ (the area under the blood concentration-time curve from zero to infinity initial plasma concentration), MRT (the mean residence time), Cmax (peak plasma concentration) and Tmax (time to reach Cmax for oral dose), t1/2 (elimination half-life) (He et al. [2015]). The absolute bioavailability (F) was evaluated as follows: F(%)=(AUCoral×Dosei.v.)/(AUCi.v.×Doseoral)×100%

[2] = Stability of the five analytes in rat plasma; format: in vitro ADME; settings: rat plasma, n = 6; for Long-term stability, Mean: 4 weeks at −80 °C; for Short-term stability, Mean: 5 h at room temperature (25 °C); for Auto-sampler stability, Mean: 24 h in the autosampler at 4 °C; for Freeze-thaw stability, Mean: three freeze-thaw cycles from −20 °C to room temperature
Experimental: Stock standards of A5, A6, DSS, TFSA, TMCA and IS were prepared in methanol at a concentration of 1 mg/mL. A series of working standard solutions of the targeted compounds ranging from 10 to 20,000 ng/mL and the IS solution at 600 ng/mL were prepared by diluting the stock solutions with methanol and maintained at −20 °C. Calibration standards were freshly prepared by spiking the series of standard solutions (30 μL) including the IS into blank rat plasma (270 μL) to achieve concentrations of 1, 10, 50, 100, 500, 1000, 1600 and 2000 ng/mL. Quality control (QC) samples were prepared independently at low (2 ng/mL), medium (600 ng/mL) and high (1600 ng/mL) concentrations following the same method for the five compounds.
Stability studies included short-term stability (5 h at room temperature, i.e. 25 °C), freeze-thaw stability (three consecutive freeze-thaw cycles from −20 °C to room temperature), autosampler stability (24 h storage in the autosampler at 4 °C) and long-term stability (4 weeks storage at −80 °C). The stability data of all analytes are presented in Supplementary Table S4.

[3] = SD, in vivo, iv, i.v. administration, A5 0.74, A6 1.16, DSS 1.60, TFSA 5.00, TMCA 0.31 mg/kg, n = 6
[4] = SD, in vivo, oral administration of pure compound, A5 7.40, A6 11.60, DSS 16.00, TFSA 50.00, TMCA 3.11 mg/kg, n = 6

Question: With `COc1cc(C=CC(=O)O)cc(OC)c1OC` [TMCA, 3,4,5-trimethoxycinnamic acid] as the compound, how does the AUC(0-inf) [1, 3] read?
Answer: 226 ± 61.2 ng·h/mL

Question: What about the AUC(0-t) [1, 3] of the same compound?
Answer: 225 ± 60.9 ng·h/mL

Question: What about the Cmax [1, 3] of the same compound?
Answer: 1470 ± 238 ng/mL

Question: What about the MRT last [1, 3] of the same compound?
Answer: 15 ± 3.6 min

Question: And the half-life [1, 3]?
Answer: 37.2 ± 7.8 min

Question: And the AUC(0-inf) [1, 4]?
Answer: 971 ± 59.8 ng·h/mL

Question: And the AUC(0-t) [1, 4]?
Answer: 968 ± 58.4 ng·h/mL

Question: What about the Cmax [1, 4] of the same compound?
Answer: 1110 ± 90.5 ng/mL

Question: And the MRT last [1, 4]?
Answer: 40.8 ± 1.8 min

Question: What about the Tmax ([1]; SD, in vivo, oral administration of pure compound, A5 7.40, A6 11.60, DSS 16.00, TFSA 50.00, TMCA 3.11 mg/kg, n = 6, read-out: Tmax) of the same compound?
Answer: 15 min

Question: And the half-life [1, 4]?
Answer: 39 ± 1.2 min

Question: What about the “AUCΔ0-t (dose-normalized)” value ([1]; i.v. administration) of the same compound?
Answer: 725.52 ± 196.42 ng·h/mL

Question: And the “AUCΔ0-∞ (dose-normalized)” value ([1]; i.v. administration)?
Answer: 730.65 ± 197.45 ng·h/mL

Question: And the “CΔmax (dose-normalized)” value ([1]; i.v. administration)?
Answer: 4750.32 ± 768.32 ng/mL

Question: And the “AUCΔ0-t (dose-normalized)” value ([1]; oral administration)?
Answer: 311.40 ± 18.78 ng·h/mL

Question: And the “AUCΔ0-∞ (dose-normalized)” value ([1]; oral administration)?
Answer: 312.32 ± 19.23 ng·h/mL

Question: What about the “CΔmax (dose-normalized)” value ([1]; oral administration) of the same compound?
Answer: 356.33 ± 29.10 ng/mL

Question: What about the “F, absolute bioavailability” value ([1]; oral vs i.v. (i.v. dose 1/10 of oral dose)) of the same compound?
Answer: 42.91 % of dose

Question: What about the “Long-term stability, Mean” value ([2]; 2 ng/mL) of the same compound?
Answer: 98.3%

Question: What about the “Short-term stability, Mean” value ([2]; 2 ng/mL) of the same compound?
Answer: 96.2%

Question: And the “Auto-sampler stability, Mean” value ([2]; 2 ng/mL)?
Answer: 96.3%

Question: What about the “Freeze-thaw stability, Mean” value ([2]; 2 ng/mL) of the same compound?
Answer: 95.3%

Question: And the “Long-term stability, Mean” value ([2]; 600 ng/mL)?
Answer: 95.5%

Question: What about the “Short-term stability, Mean” value ([2]; 600 ng/mL) of the same compound?
Answer: 98.3%

Question: And the “Auto-sampler stability, Mean” value ([2]; 600 ng/mL)?
Answer: 99.8%

Question: What about the “Freeze-thaw stability, Mean” value ([2]; 600 ng/mL) of the same compound?
Answer: 97.3%

Question: And the “Long-term stability, Mean” value ([2]; 1600 ng/mL)?
Answer: 95.8%

Question: What about the “Short-term stability, Mean” value ([2]; 1600 ng/mL) of the same compound?
Answer: 102.5%

Question: What about the “Auto-sampler stability, Mean” value ([2]; 1600 ng/mL) of the same compound?
Answer: 99.5%

Question: What about the “Freeze-thaw stability, Mean” value ([2]; 1600 ng/mL) of the same compound?
Answer: 98.8%
